Like-named read-outs stand apart in the source and are kept apart here.
Test system: HCT116 MTAP-deleted cell lines
Experiment: Cell viability assay (CellTiter-Glo, 7 days), HCT116 MTAP-deleted
Format: cell-based
Details: Homo sapiens, HCT-116, HCT116 MTAP-deleted, class symbols, read-out: CC50
Procedure, shortened: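 Luminescent ATP readout (CellTiter-Glo) after 7 days of continuous compound exposure gives the CC50 value. Cells were plated onto pre-dispensed DMSO dilution series of the PRMT5 inhibitors and kept at 37 °C in 5% CO2.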

C[C@H]1CN(C(=O)c2cc3c(cc2F)nc(N)c2cncn23)[C@H]2c3ccc(-c4cnn(C(F)(F)F)c4)cc3C[C@H]2O1 [Ff-97, (4-amino-7-fluoroimidazo[1,5-a]quinoxalin-8-yl)((2S,4aS,9aR)-2-methyl-7-(1-(trifluoromethyl)-1H-pyrazol-4-yl)-2,3,9,9a-tetrahydroindeno[2,1-b][1,4]oxazin-4(4aH)-yl)methanone]
CC50 (cell viability): 100 to 1000 nM

COC1(C#Cc2ccc3c(c2)OC[C@H]3N(C)C(=O)c2ccc3nc(N)c4cncn4c3c2)CCC1 [Ff-519, (S)-4-amino-N-(6-((1-methoxycyclobutyl)ethynyl)-2,3-dihydrobenzofuran-3-yl)-N-methylimidazo[1,5-a]quinoxaline-8-carboxamide]
CC50 (cell viability assay): 100 to 1000 nM

Nc1nc2cnc(C(=O)N3CCO[C@@H]4Cc5c(cc(F)c(Br)c5F)[C@@H]43)cc2n2cncc12 [Ff-162, (4-aminoimidazo[1,5-a]pyrido[3,4-e]pyrazin-8-yl)((4aS,9aR)-7-bromo-6,8-difluoro-2,3,9,9a-tetrahydroindeno[2,1-b][1,4]oxazin-4(4aH)-yl)methanone]
CC50 (cell viability): 100 to 1000 nM

[2H]C([2H])([2H])N(C(=O)c1cc2c(cc1F)nc(N)c1cncn12)[C@@H](c1ccc(C(F)(F)F)cc1F)C(F)F [Fb-18, (S)-4-amino-N-(2,2-difluoro-1-(2-fluoro-4-(trifluoromethyl)phenyl)ethyl)-7-fluoro-N-(methyl-d3)imidazo[1,5-a]quinoxaline-8-carboxamide]
CC50 (cell viability): < 100 nM

Cc1ncn2c1c(N)nc1cc(Cl)c(C(=O)N3CCC[C@@H]4Oc5cc(C(F)(F)F)ncc5[C@@H]43)cc12 [Fg-19, (4-amino-7-chloro-3-methylimidazo[1,5-a]quinoxalin-8-yl)((4aS,9bS)-7-(trifluoromethyl)-3,4,4a,9b-tetrahydrofuro[3,2-b:4,5-c′]dipyridin-1(2H)-yl)methanone]
CC50 (cell viability assay): < 100 nM

CC1(C)C[C@@H]2Oc3cc(C(F)(F)F)ccc3[C@@H]2N(C(=O)c2cc3c(cn2)nc(N)c2cncn23)C1 (racemic) [Ff-258, Rac-(4-aminoimidazo[1,5-a]pyrido[3,4-e]pyrazin-8-yl)((4aR,9bR)-3,3-dimethyl-7-(trifluoromethyl)-3,4,4a,9b-tetrahydrobenzofuro[3,2-b]pyridin-1(2H)-yl)methanone]
CC50 (cell viability): < 100 nM

CC1CN(C(=O)c2cc3c(cc2F)nc(N)c2cncn23)[C@H]2c3cc(F)ccc3C[C@H]2O1 (stereo partly drawn) [Ff-327, (4-amino-7-fluoroimidazo[1,5-a]quinoxalin-8-yl)((4aS,9aR)-6-fluoro-2-methyl-2,3,9,9a-tetrahydroindeno[2,1-b][1,4]oxazin-4(4aH)-yl)methanone]
CC50 (cell viability): < 100 nM

Cc1ncc2c(N)nc3ccc(C(=O)N4CCC[C@@H]5Oc6c(ccc(C(F)(F)F)c6F)[C@@H]54)cc3n12 [Ff-122, (4-amino-1-methylimidazo[1,5-a]quinoxalin-8-yl)((4aS,9bS)-6-fluoro-7-(trifluoromethyl)-3,4,4a,9b-tetrahydrobenzofuro[3,2-b]pyridin-1(2H)-yl)methanone]
CC50 (cell viability): < 100 nM

Nc1nc2cc(F)c(C(=O)N(Cc3ccc(C(F)(F)F)cc3F)c3ncco3)cc2n2cncc12 [Ff-226, 4-amino-7-fluoro-N-(2-fluoro-4-(trifluoromethyl)benzyl)-N-(oxazol-2-yl)imidazo[1,5-a]quinoxaline-8-carboxamide]
CC50 (cell viability): < 100 nM

Nc1nc2cc(F)c(C(=O)N(Cc3ccc(C(F)(F)F)cn3)C34COC(C3)C4)cc2n2cncc12 [Ff-268, 4-amino-N-(2-oxabicyclo[2.1.1]hexan-4-yl)-7-fluoro-N-((5-(trifluoromethyl)pyridin-2-yl)methyl)imidazo[1,5-a]quinoxaline-8-carboxamide]
CC50 (cell viability): < 100 nM

Nc1nc2cc(F)c(C(=O)N3CCO[C@@H]4Cc5cc(-c6cnn(C(F)F)c6)ccc5[C@@H]43)cc2n2cncc12 [Ff-235, (4-amino-7-fluoroimidazo[1,5-a]quinoxalin-8-yl)((4aS,9aR)-7-(1-(difluoromethyl)-1H-pyrazol-4-yl)-2,3,9,9a-tetrahydroindeno[2,1-b][1,4]oxazin-4(4aH)-yl)methanone]
CC50 (cell viability): < 100 nM

CN(Cc1ccc(-c2cnn(C(F)(F)F)c2)cc1Cl)C(=O)c1cc2c(cc1F)nc(N)c1cncn12 [Ff-552, 4-amino-N-(2-chloro-4-(1-(trifluoromethyl)-1H-pyrazol-4-yl)benzyl)-7-fluoro-N-methylimidazo[1,5-a]quinoxaline-8-carboxamide]
CC50 (cell viability assay): 100 to 1000 nM

C[C@H]1OC[C@@H](N(C)C(=O)c2ccc3nc(N)c4cncn4c3c2)c2ccc(C(F)(F)F)cc21 (single isomer, unassigned) [Ff-471]
CC50 (cell viability assay): < 100 nM

CN(C(=O)c1cc2c(cc1F)nc(N)c1cncn12)[C@@H]1COc2cc(C#CC34CCC(CC3)OC4)ccc21 [Ff-523, (S)—N-(6-((2-oxabicyclo[2.2.2]octan-4-yl)ethynyl)-2,3-dihydrobenzofuran-3-yl)-4-amino-7-fluoro-N-methylimidazo[1,5-a]quinoxaline-8-carboxamide]
CC50 (cell viability assay): 100 to 1000 nM

CN(C(=O)c1cc2c(cc1F)nc(N)c1cncn12)[C@@H]1COc2cc(C3CC(F)(F)C3)ccc21 [Ff-572, (S)-4-amino-N-(6-(3,3-difluorocyclobutyl)-2,3-dihydrobenzofuran-3-yl)-7-fluoro-N-methylimidazo[1,5-a]quinoxaline-8-carboxamide]
CC50 (cell viability assay): < 100 nM

Nc1nc2cc(F)c(C(=O)N3CCC[C@@H]4Oc5c(ccc(OC(F)(F)F)c5F)[C@@H]43)cc2n2cncc12 [Ff-343, (4-amino-7-fluoroimidazo[1,5-a]quinoxalin-8-yl)((4aS,9bS)-6-fluoro-7-(trifluoromethoxy)-3,4,4a,9b-tetrahydrobenzofuro[3,2-b]pyridin-1(2H)-yl)methanone]
CC50 (cell viability): < 100 nM

Nc1nc2cnc(C(=O)N3CC4(CCC4)C[C@@H]4Oc5cc(C(F)(F)F)ccc5[C@@H]43)cc2n2cncc12 (racemic) [Ff-688, Rac-(4-aminoimidazo[1,5-a]pyrido[3,4-e]pyrazin-8-yl)((4aS,9bS)-7-(trifluoromethyl)-4a,9b-dihydro-2H-spiro[benzofuro[3,2-b]pyridine-3,1′-cyclobutan]-1(4H)-yl)methanone]
CC50 (cell viability assay): < 100 nM

CN(C(=O)c1cc2c(cc1F)nc(N)c1cnc(Br)n12)[C@@H]1COc2cc(C(F)(F)F)ccc21 (single isomer, unassigned) [Ff-493]
CC50 (cell viability assay): 100 to 1000 nM

CO[C@@H]1Cc2cc(C(F)(F)F)ccc2[C@@H]1N(C)C(=O)c1cc2c(cc1F)nc(N)c1cncn12 [Ff-581, 4-amino-7-fluoro-N-((1S,2R)-2-methoxy-5-(trifluoromethyl)-2,3-dihydro-1H-inden-1-yl)-N-methylimidazo[1,5-a]quinoxaline-8-carboxamide]
CC50 (cell viability assay): 100 to 1000 nM

Nc1nc2ccc(C(=O)N(Cc3ccc(C(F)(F)F)cc3F)C3CCC3)cc2n2cncc12 [Ff-408, 4-amino-N-cyclobutyl-N-[[2-fluoro-4-(trifluoromethyl)phenyl]methyl]imidazo[1,5-a]quinoxaline-8-carboxamide]
CC50 (cell viability assay): < 100 nM

CN(C(=O)c1cc2c(cn1)nc(N)c1cncn12)[C@H]1c2ccc(C(F)(F)F)cc2[C@H]2C[C@H]21 [Ff-256, 4-amino-N-methyl-N-((1aS,6R,6aR)-3-(trifluoromethyl)-1,1a,6,6a-tetrahydrocyclopropa[a]inden-6-yl)imidazo[1,5-a]pyrido[3,4-e]pyrazine-8-carboxamide]
CC50 (cell viability): 100 to 1000 nM

C[C@@H]1CN(C(=O)c2cc3c(cc2F)nc(N)c2cncn23)[C@@H]2c3ccc(C(F)(F)F)cc3C[C@@H]2O1 (single isomer, unassigned) [Ff-78]
CC50 (cell viability): < 100 nM

CC1(C)C[C@@H]2Oc3nc(C(F)(F)F)ccc3[C@@H]2N(C(=O)c2cc3c(cc2F)nc(N)c2cncn23)C1 (racemic) [Ff-384, Rac-(4-amino-7-fluoroimidazo[1,5-a]quinoxalin-8-yl)((4aS,9bS)-3,3-dimethyl-7-(trifluoromethyl)-3,4,4a,9b-tetrahydrofuro[2,3-b:4,5-b′]dipyridin-1(2H)-yl)methanone]
CC50 (cell viability assay): < 100 nM

CN(C(=O)c1cc2c(cc1F)nc(N)c1cncn12)C1COc2cc3c(cc21)CCC3 (stereo not shown) [Ff-459, 4-amino-7-fluoro-N-methyl-N-(3,5,6,7-tetrahydro-2H-indeno[5,6-b]furan-3-yl)imidazo[1,5-a]quinoxaline-8-carboxamide]
CC50 (cell viability assay): < 100 nM

C[C@H]1CN(C(=O)c2cc3c(cc2F)nc(N)c2cncn23)[C@H]2c3ccccc3C[C@H]2O1 (racemic) [Ff-55, Rac-(4-amino-7-fluoroimidazo[1,5-a]quinoxalin-8-yl)((2S,4aS,9aR)-2-methyl-2,3,9,9a-tetrahydroindeno[2,1-b][1,4]oxazin-4(4aH)-yl)methanone]
CC50 (cell viability): < 100 nM

CN(C(=O)c1cc2c(cc1F)nc(N)c1cncn12)[C@H]1c2ccc(C(F)(F)F)cc2[C@@H]2C[C@@H]21 [Ff-253, 4-amino-7-fluoro-N-methyl-N-((1aR,6R,6aS)-3-(trifluoromethyl)-1,1a,6,6a-tetrahydrocyclopropa[a]inden-6-yl)imidazo[1,5-a]quinoxaline-8-carboxamide]
CC50 (cell viability): 100 to 1000 nM

Cn1c(CN(C(=O)c2cc3c(cc2F)nc(N)c2cncn23)N2CCCC2=O)nc2cc(C(F)(F)F)ccc21 [Fb-7, 4-amino-7-fluoro-N-((1-methyl-5-(trifluoromethyl)-1H-benzo[d]imidazol-2-yl)methyl)-N-(2-oxopyrrolidin-1-yl)imidazo[1,5-a]quinoxaline-8-carboxamide]
CC50 (cell viability): < 100 nM

Cc1ncn2c1c(N)nc1cnc(C(=O)N3C[C@H](C)O[C@@H]4Cc5cc(C(F)(F)F)ccc5[C@@H]43)cc12 [Ff-498, (4-amino-3-methylimidazo[1,5-a]pyrido[3,4-e]pyrazin-8-yl)((2S,4aS,9aR)-2-methyl-7-(trifluoromethyl)-2,3,9,9a-tetrahydroindeno[2,1-b][1,4]oxazin-4(4aH)-yl)methanone]
CC50 (cell viability assay): < 100 nM
